Read-outs that look alike come from different tables or passages of the source.
Key:
Tau441 = Tau441 (Homo sapiens, UniProt P10636); test: Thioflavin S (ThS) tau aggregation assay; format: biochemical; conditions: 20 μM, FIG. 1
Protocol: Analogous to the method of Example 1, the ability of compounds to inhibit the aggregation of tau was performed by substituting […] with tau and Thioflavin T with Thioflavin S.

[1] = Metabolic stability in mouse liver microsomes; format: in vitro ADME; conditions: 1 μM compound, 0.5 mg/mL microsomal protein, 1 mM NADPH
Protocol: This assay is used to determine the percent remaining and intrinsic clearance of a test compound incubated with pooled mouse liver microsomes in the presence of NADPH. Further details on this method may be found in Jeffrey P, et al., Utility of metabolic stability screening: comparison of in vitro and in vivo clearance. enobiotica. 2001 August-September; 31(8-9):591-8 and Lin J H, et al., Role of pharmacokinetics and metabolism in drug discovery and development. Pharmacol Rev. 1997; 49(4):403-49; each of which is hereby incorporated by reference. Test compound was formulated in 300 μL of DMSO at 10 mM and was diluted to 1 μM with final concentration of organic solvent <0.25% for the experiment. Pooled liver microsomes were prepared from male mice, with 1 mM NADPH. Test compound was incubated at 37 degrees Celsius in buffer containing 0.5 mg/mL microsomal protein; the reaction was initiated by adding cofactors and sampled at 0, 10, 20, 30, and 60 minutes. A positive control (5 μM testosterone) was incubated and initiated in parallel for quality control. Samples were analyzed using an LTQ-Orbitrap XL mass spectrometer; HRMS was used to determine the peak area response ratio (peak area corresponding to test compound or control divided by that of an analytical internal standard) without running a standard curve.
Results were reported for selected compounds in the table of Example 1, as % test compound remaining after 60 minutes. Compounds which have less than about 5% remaining are not considered to be metabolically stable in mouse liver microsomes, while compounds with more than about 5% remaining are considered to be metabolically stable in mouse liver microsomes.

[2] = In vivo blood and brain exposure and brain/plasma ratio in ICR mice; conditions: male ICR mice
Protocol: TRV 1140 was formulated in 3% N-methyl-2-pyrrolidone, 0.5% Cremaphor, 50% olive oil in water. The compound was formulated at a concentration of 2 mg/mL and dosed in a volume of 10 mL/kg to produce a dose of 20 mg/kg. The formulation was an emulsion. Compound was formulated fresh daily. Mice were dosed once daily for three days. Male ICR mice (S.A. Ace Animals; Boyertown, Pa.) were used for this experiment. Animals were group housed and kept on a standard 12 hr light cycle. Food and water were available ad libitum. On the third day mice were dosed with compound. At the designated time after 20 mg/kg dosing (30 min, 2 hrs, 4 hrs), whole blood was collected via the retro-orbital sinus in heparanized tubes and mixed with deionized water at a 1:1 ratio for hemolyzation. Hemolyzed blood was analyzed for levels of test agent. Blood samples were extracted by a standard protocol known in the art. At designated time points, mice were sacrificed. Brains were removed, weighed, and processed. Brains were homogenized and test agent extracted with an acetonitrile homogenization method (1 mL acetonitrile: 1 g brain). Supernatant samples were stored at −80° C. for subsequent analysis of brain levels of test compound. Brain levels of test agent were analyzed by LC/MS/MS.

Chain of Tau441 (P10636 1-441 isoform P10636-8): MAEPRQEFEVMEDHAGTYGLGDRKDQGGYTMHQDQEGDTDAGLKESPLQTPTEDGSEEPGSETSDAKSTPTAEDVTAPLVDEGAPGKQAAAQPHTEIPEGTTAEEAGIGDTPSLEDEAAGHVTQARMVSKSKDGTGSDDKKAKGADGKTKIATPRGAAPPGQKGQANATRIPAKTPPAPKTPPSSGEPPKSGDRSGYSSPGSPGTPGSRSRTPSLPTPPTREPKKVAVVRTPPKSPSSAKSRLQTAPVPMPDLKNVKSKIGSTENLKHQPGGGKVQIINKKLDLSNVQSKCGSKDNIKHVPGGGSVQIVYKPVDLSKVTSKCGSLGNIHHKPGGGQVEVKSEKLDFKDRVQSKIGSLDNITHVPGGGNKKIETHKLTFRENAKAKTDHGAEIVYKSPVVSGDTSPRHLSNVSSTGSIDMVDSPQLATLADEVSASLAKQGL

Structure (SMILES): O=[N+]([O-])c1ccc(-c2cccc(C(O)C(F)(F)F)c2)cc1NCc1ccccc1 (stereo not drawn) [TRV 1140, 1-(3′-(benzylamino)-4′-nitro-[1,1′-biphenyl]-3-yl)-2,2,2-trifluoroethanol]
- relative potency in tau aggregation assay (lower fluorescence is better) (Tau441): Most potent
- Stability in mouse liver microsomes (% test compound remaining after 60 min) [1]: 34%
- brain penetrance ([2]; 20 mg/kg): highly brain penetrable
- time of maximum concentration (blood and brain) ([2]; 20 mg/kg once daily, third day): 4 h
- total drug exposure in blood ([2]; 20 mg/kg once daily, third day, 0-4 hr): 450 ng·h/mL
- total drug exposure in brain ([2]; 20 mg/kg once daily, third day, 0-4 hr, mean of two samples): 694 ng·h/mL
- Kp ([2]; mouse, brain / plasma (method describes hemolyzed whole blood), 20 mg/kg once daily, third day): 1.54
- Cmax ([2]; mouse, brain, 20 mg/kg once daily, third day, read-out: Maximum concentration (Cmax) in brain): 238 ng/mL
- Cmax ([2]; mouse, whole blood, 20 mg/kg once daily, third day, read-out: Maximum concentration (Cmax) in blood): 87.5 ng/mL
